Measured values taken from patent US20230284620A1, “MIXTURES OF PYRIDAZINES AS HERBICIDAL COMPOSITIONS” (SYNGENTA CROP PROTECTION AG, priority 2020, published 2023).
Several values for one entry are separate records, joined by “and”; a condition that tells them apart may be missing. Equal values may be shown once.

Legend:
Experiment in all cases: Post-emergence glasshouse herbicide test, visual phytotoxicity
Type in all cases: in vivo
Details in all cases: 13 days
[1] = tested on: Abutilon threophrasti (ABUTH)
Protocol: (§1) Seeds of Setaria faberi (SETFA), Echinochloa crus-galli (ECHCG), Digitaria sanguinalis (DIGSA), Lolium perenne (LOLPE), Alopecurus myosuroides (ALOMY), Chenopodium album (CHEAL), Ipomoea hederacea (IPOHE), Stellaria media (STEME), Abutilon threophrasti (ABUTH) and Amaranthus retroflexus (AMARE) were sown in standard sterilised soil in pots. After cultivation for 8 days under controlled conditions in a glasshouse (at 24/19° C., day/night; 16 hours light; no humidity control), the plants were sprayed at 500 l/Ha with an aqueous spray solution derived from the formulation of the technical active ingredients in a small amount of acetone and a solvent and emulsifier mixture referred to as IF50 (11.12% Emulsogen EL360 TM+44.44% N-methylpyrrolidone+44.44% Dowanol DPM glycol ether), to create a 50 g/l solution which was then diluted using 0.2% Genapol X080 (CAS Number: 9043-30-5) as diluent to give the desired final dose of test compound.
(§2) Where active ingredients were applied as mixtures, aqueous spray solutions were prepared as above, containing both active ingredients.
(§3) The test plants were then grown under controlled conditions in a glasshouse (at 24/18° C., day/night; 15 hours light; 50% humidity) and watered twice daily. After 13 days, the test was evaluated visually for percentage phytotoxicity to the plants (where 100=total damage to plant; 0=no damage to plant; and NC=not captured) when compared to control untreated plants. Two to four replicates were applied for each treatment in a randomised block test design.
(§4) 22., E=X+Y−(X*Y/100), where • X=average percent phytotoxicity of herbicide A when applied at a certain rate • Y=average percent phytotoxicity using herbicide B when applied at a certain rate • E=the expected effect of the mixture of herbicides A and B as calculated from the Colby formula.

[2] = tested on: Alopecurus myosuroides (ALOMY)
Protocol: as §1, §2, §3, §4

[3] = tested on: Amaranthus retroflexus (AMARE)
Protocol: as §1, §2, §3, §4

[4] = tested on: Chenopodium album (CHEAL)
Protocol: as §1, §2, §3, §4

[5] = tested on: Digitaria sanguinalis (DIGSA)
Protocol: as §1, §2, §3, §4

[6] = tested on: Echinochloa crus-galli (ECHCG)
Protocol: as §1, §2, §3, §4

[7] = tested on: Ipomoea hederacea (IPOHE)
Protocol: as §1, §2, §3, §4

Lolium perenne (LOLPE) = tested on: Lolium perenne (LOLPE)
Protocol: as §1, §2, §3, §4

Setaria faberi (SETFA) = tested on: Setaria faberi (SETFA)
Protocol: as §1, §2, §3, §4

Stellaria media (STEME) = tested on: Stellaria media (STEME)
Protocol: as §1, §2, §3, §4

SMILES: CC1(C)CN(Cc2ccccc2NS(=O)(=O)C(F)(F)F)C1=O [B-IV]
- percentage phytotoxicity ABUTH ([1]; 31.25 g/ha): 15%
- percentage phytotoxicity ABUTH ([1]; 62.5 g/ha): 3%
- percentage phytotoxicity ABUTH ([1]; 125 g/ha): 13%
- percentage phytotoxicity ABUTH ([1]; 250 g/ha): 45%
- percentage phytotoxicity ABUTH ([1]; 500 g/ha): 60%
- percentage phytotoxicity ALOMY ([2]; 31.25 g/ha): 0%
- percentage phytotoxicity ALOMY ([2]; 62.5 g/ha): 0%
- percentage phytotoxicity ALOMY ([2]; 125 g/ha): 23%
- percentage phytotoxicity ALOMY ([2]; 250 g/ha): 50%
- percentage phytotoxicity ALOMY ([2]; 500 g/ha): 73%
- percentage phytotoxicity AMARE ([3]; 31.25 g/ha): 73%
- percentage phytotoxicity AMARE ([3]; 62.5 g/ha): 80%
- percentage phytotoxicity AMARE ([3]; 125 g/ha): 83%
- percentage phytotoxicity AMARE ([3]; 250 g/ha): 85%
- percentage phytotoxicity AMARE ([3]; 500 g/ha): 83%
- percentage phytotoxicity CHEAL ([4]; 31.25 g/ha): 15%
- percentage phytotoxicity CHEAL ([4]; 62.5 g/ha): 30%
- percentage phytotoxicity CHEAL ([4]; 125 g/ha): 15%
- percentage phytotoxicity CHEAL ([4]; 250 g/ha): 20%
- percentage phytotoxicity CHEAL ([4]; 500 g/ha): 58%
- percentage phytotoxicity DIGSA ([5]; 31.25 g/ha): 0%
- percentage phytotoxicity DIGSA ([5]; 62.5 g/ha): 0%
- percentage phytotoxicity DIGSA ([5]; 125 g/ha): 18%
- percentage phytotoxicity DIGSA ([5]; 250 g/ha): 38%
- percentage phytotoxicity DIGSA ([5]; 500 g/ha): 70%
- percentage phytotoxicity ECHCG ([6]; 31.25 g/ha): 0%
- percentage phytotoxicity ECHCG ([6]; 62.5 g/ha): 0%
- percentage phytotoxicity ECHCG ([6]; 125 g/ha): 45%
- percentage phytotoxicity ECHCG ([6]; 250 g/ha): 53%
- percentage phytotoxicity ECHCG ([6]; 500 g/ha): 63%
- percentage phytotoxicity IPOHE ([7]; 31.25 g/ha): 75%
- percentage phytotoxicity IPOHE ([7]; 62.5 g/ha): 35%
- percentage phytotoxicity IPOHE ([7]; 125 g/ha): 88%
- percentage phytotoxicity IPOHE ([7]; 250 g/ha): 89%
- percentage phytotoxicity IPOHE ([7]; 500 g/ha): 93%
- percentage phytotoxicity LOLPE (Lolium perenne (LOLPE); 31.25 g/ha): 0%
- percentage phytotoxicity LOLPE (Lolium perenne (LOLPE); 62.5 g/ha): 0%
- percentage phytotoxicity LOLPE (Lolium perenne (LOLPE); 125 g/ha): 33%
- percentage phytotoxicity LOLPE (Lolium perenne (LOLPE); 250 g/ha): 48%
- percentage phytotoxicity LOLPE (Lolium perenne (LOLPE); 500 g/ha): 80%
- percentage phytotoxicity SETFA (Setaria faberi (SETFA); 31.25 g/ha): 0%
- percentage phytotoxicity SETFA (Setaria faberi (SETFA); 62.5 g/ha): 0%
- percentage phytotoxicity SETFA (Setaria faberi (SETFA); 125 g/ha): 23% and 22%
- percentage phytotoxicity SETFA (Setaria faberi (SETFA); 250 g/ha): 48%
- percentage phytotoxicity SETFA (Setaria faberi (SETFA); 500 g/ha): 50%
- percentage phytotoxicity STEME (Stellaria media (STEME); 31.25 g/ha): 68%
- percentage phytotoxicity STEME (Stellaria media (STEME); 62.5 g/ha): 78%
- percentage phytotoxicity STEME (Stellaria media (STEME); 125 g/ha): 80%
- percentage phytotoxicity STEME (Stellaria media (STEME); 250 g/ha): 80%
- percentage phytotoxicity STEME (Stellaria media (STEME); 500 g/ha): 83%

SMILES: COc1c(Cl)ccc(-c2nc(C(=O)OCc3ccccc3)c(Cl)c(N)c2F)c1F [B-I]
- percentage phytotoxicity ABUTH ([1]; 0.625 g/ha): 78%
- percentage phytotoxicity ABUTH ([1]; 1.25 g/ha): 80%
- percentage phytotoxicity ABUTH ([1]; 2.5 g/ha): 83%
- percentage phytotoxicity ABUTH ([1]; 5 g/ha): 90%
- percentage phytotoxicity ABUTH ([1]; 10 g/ha): 85%
- percentage phytotoxicity ALOMY ([2]; 0.625 g/ha): 0%
- percentage phytotoxicity ALOMY ([2]; 1.25 g/ha): 0%
- percentage phytotoxicity ALOMY ([2]; 2.5 g/ha): 0%
- percentage phytotoxicity ALOMY ([2]; 5 g/ha): 0%
- percentage phytotoxicity ALOMY ([2]; 10 g/ha): 5%
- percentage phytotoxicity AMARE ([3]; 0.625 g/ha): 63%
- percentage phytotoxicity AMARE ([3]; 1.25 g/ha): 70%
- percentage phytotoxicity AMARE ([3]; 2.5 g/ha): 80%
- percentage phytotoxicity AMARE ([3]; 5 g/ha): 80%
- percentage phytotoxicity AMARE ([3]; 10 g/ha): 93%
- percentage phytotoxicity CHEAL ([4]; 0.625 g/ha): 85%
- percentage phytotoxicity CHEAL ([4]; 1.25 g/ha): 73%
- percentage phytotoxicity CHEAL ([4]; 2.5 g/ha): 83%
- percentage phytotoxicity CHEAL ([4]; 5 g/ha): 91%
- percentage phytotoxicity CHEAL ([4]; 10 g/ha): 93%
- percentage phytotoxicity DIGSA ([5]; 0.625 g/ha): 0%
- percentage phytotoxicity DIGSA ([5]; 1.25 g/ha): 8%
- percentage phytotoxicity DIGSA ([5]; 2.5 g/ha): 0%
- percentage phytotoxicity DIGSA ([5]; 5 g/ha): 0%
- percentage phytotoxicity DIGSA ([5]; 10 g/ha): 0%
- percentage phytotoxicity ECHCG ([6]; 0.625 g/ha): 0%
- percentage phytotoxicity ECHCG ([6]; 1.25 g/ha): 8%
- percentage phytotoxicity ECHCG ([6]; 2.5 g/ha): 0%
- percentage phytotoxicity ECHCG ([6]; 5 g/ha): 0%
- percentage phytotoxicity ECHCG ([6]; 10 g/ha): 10%
- percentage phytotoxicity IPOHE ([7]; 0.625 g/ha): 53%
- percentage phytotoxicity IPOHE ([7]; 1.25 g/ha): 58%
- percentage phytotoxicity IPOHE ([7]; 2.5 g/ha): 58%
- percentage phytotoxicity IPOHE ([7]; 5 g/ha): 63%
- percentage phytotoxicity IPOHE ([7]; 10 g/ha): 75%
- percentage phytotoxicity LOLPE (Lolium perenne (LOLPE); 0.625 g/ha): 0%
- percentage phytotoxicity LOLPE (Lolium perenne (LOLPE); 1.25 g/ha): 10%
- percentage phytotoxicity LOLPE (Lolium perenne (LOLPE); 2.5 g/ha): 0%
- percentage phytotoxicity LOLPE (Lolium perenne (LOLPE); 5 g/ha): 0%
- percentage phytotoxicity LOLPE (Lolium perenne (LOLPE); 10 g/ha): 0%
- percentage phytotoxicity SETFA (Setaria faberi (SETFA); 0.625 g/ha): 0%
- percentage phytotoxicity SETFA (Setaria faberi (SETFA); 1.25 g/ha): 5%
- percentage phytotoxicity SETFA (Setaria faberi (SETFA); 2.5 g/ha): 0%
- percentage phytotoxicity SETFA (Setaria faberi (SETFA); 5 g/ha): 0%
- percentage phytotoxicity SETFA (Setaria faberi (SETFA); 10 g/ha): 5%
- percentage phytotoxicity STEME (Stellaria media (STEME); 0.625 g/ha): 63%
- percentage phytotoxicity STEME (Stellaria media (STEME); 1.25 g/ha): 65%
- percentage phytotoxicity STEME (Stellaria media (STEME); 2.5 g/ha): 80%
- percentage phytotoxicity STEME (Stellaria media (STEME); 5 g/ha): 85%
- percentage phytotoxicity STEME (Stellaria media (STEME); 10 g/ha): 90%

SMILES: Nc1c(F)c(-c2ccc3cc[nH]c3c2F)nc(C(=O)O)c1Cl [B-VI]
- percentage phytotoxicity ABUTH ([1]; 0.625 g/ha): 48%
- percentage phytotoxicity ABUTH ([1]; 1.25 g/ha): 70%
- percentage phytotoxicity ABUTH ([1]; 2.5 g/ha): 78%
- percentage phytotoxicity ABUTH ([1]; 5 g/ha): 80%
- percentage phytotoxicity ABUTH ([1]; 10 g/ha): 93%
- percentage phytotoxicity ALOMY ([2]; 0.625 g/ha): 0%
- percentage phytotoxicity ALOMY ([2]; 1.25 g/ha): 0%
- percentage phytotoxicity ALOMY ([2]; 2.5 g/ha): 10%
- percentage phytotoxicity ALOMY ([2]; 5 g/ha): 8%
- percentage phytotoxicity ALOMY ([2]; 10 g/ha): 25%
- percentage phytotoxicity AMARE ([3]; 0.625 g/ha): 83%
- percentage phytotoxicity AMARE ([3]; 1.25 g/ha): 83%
- percentage phytotoxicity AMARE ([3]; 2.5 g/ha): 90%
- percentage phytotoxicity AMARE ([3]; 5 g/ha): 98%
- percentage phytotoxicity AMARE ([3]; 10 g/ha): 100%
- percentage phytotoxicity CHEAL ([4]; 0.625 g/ha): 75%
- percentage phytotoxicity CHEAL ([4]; 1.25 g/ha): 80%
- percentage phytotoxicity CHEAL ([4]; 2.5 g/ha): 83%
- percentage phytotoxicity CHEAL ([4]; 5 g/ha): 94%
- percentage phytotoxicity CHEAL ([4]; 10 g/ha): 98%
- percentage phytotoxicity DIGSA ([5]; 0.625 g/ha): 0%
- percentage phytotoxicity DIGSA ([5]; 1.25 g/ha): 0%
- percentage phytotoxicity DIGSA ([5]; 2.5 g/ha): 13%
- percentage phytotoxicity DIGSA ([5]; 5 g/ha): 15%
- percentage phytotoxicity DIGSA ([5]; 10 g/ha): 43%
- percentage phytotoxicity ECHCG ([6]; 0.625 g/ha): 0%
- percentage phytotoxicity ECHCG ([6]; 1.25 g/ha): 0%
- percentage phytotoxicity ECHCG ([6]; 2.5 g/ha): 25%
- percentage phytotoxicity ECHCG ([6]; 5 g/ha): 10%
- percentage phytotoxicity ECHCG ([6]; 10 g/ha): 53%
- percentage phytotoxicity IPOHE ([7]; 0.625 g/ha): 25%
- percentage phytotoxicity IPOHE ([7]; 1.25 g/ha): 35%
- percentage phytotoxicity IPOHE ([7]; 2.5 g/ha): 38%
- percentage phytotoxicity IPOHE ([7]; 5 g/ha): 48%
- percentage phytotoxicity IPOHE ([7]; 10 g/ha): 65%
- percentage phytotoxicity LOLPE (Lolium perenne (LOLPE); 0.625 g/ha): 0%
- percentage phytotoxicity LOLPE (Lolium perenne (LOLPE); 1.25 g/ha): 0%
- percentage phytotoxicity LOLPE (Lolium perenne (LOLPE); 2.5 g/ha): 5%
- percentage phytotoxicity LOLPE (Lolium perenne (LOLPE); 5 g/ha): 5%
- percentage phytotoxicity LOLPE (Lolium perenne (LOLPE); 10 g/ha): 25%
- percentage phytotoxicity SETFA (Setaria faberi (SETFA); 0.625 g/ha): 0%
- percentage phytotoxicity SETFA (Setaria faberi (SETFA); 1.25 g/ha): 0%
- percentage phytotoxicity SETFA (Setaria faberi (SETFA); 2.5 g/ha): 5%
- percentage phytotoxicity SETFA (Setaria faberi (SETFA); 5 g/ha): 2%
- percentage phytotoxicity SETFA (Setaria faberi (SETFA); 10 g/ha): 40%
- percentage phytotoxicity STEME (Stellaria media (STEME); 0.625 g/ha): 65%
- percentage phytotoxicity STEME (Stellaria media (STEME); 1.25 g/ha): 75%
- percentage phytotoxicity STEME (Stellaria media (STEME); 2.5 g/ha): 90%
- percentage phytotoxicity STEME (Stellaria media (STEME); 5 g/ha): 93%
- percentage phytotoxicity STEME (Stellaria media (STEME); 10 g/ha): 99%
